Measurements taken from ChEMBL document CHEMBL5620390, “A novel multifunctional mitochondrion-targeting NIR fluorophore probe inhibits tumour proliferation and metastasis through the PPARγ/ROS/β-catenin pathway” (Eur J Med Chem, 2023).
The source made the active and inactive calls. No cut-off for these calls is given here.

Legend:
[1] = tested on: A-375; test: Antiproliferative activity against human A-375 cells assessed as inhibition of cell growth after 24 to 72 hrs by MTT assay; format: functional, cell-based
[2] = Toxicity in C57BL/6J mouse inoculated with mouse B16-F10 cells assessed as effect on spleen morphology at 2 mg/kg, ip administered every other day for 22 days by H and E staining based assay; format: organism-based; details: in vivo, 528 h, time 22 day
[3] = tested on: B16-F10; test: Inhibition of colony formation in mouse B16-F10 cells at less than 0.63 uM by crystal violet staining based assay; format: functional, cell-based
[4] = tested on: B16-F10; test: Inhibition of ROS generation in mouse B16-F10 cells preincubated with rosiglitazone for 2 hrs followed by wash out and compound addition for 1 hr by DCFH-DA staining based inverted fluorescence microscopic analysis; format: functional, cell-based
[5] = tested on: B16-F10; test: Induction of ROS generation in mouse B16-F10 cells assessed as reduction in GPX1 expression level at 1.25 uM preincubated with rosiglitazone for 24 hrs followed by compound addition for 24 hrs; format: functional, cell-based
[6] = tested on: MDA-MB-231; test: Antiproliferative activity against human MDA-MB-231 cells assessed as inhibition of cell growth at 0.31 uM after 72 hrs by MTT assay; format: functional; design: scale not given: the % may be the effect or the level left
[7] = tested on: A-375; test: Induction of ROS generation in human A-375 cells assessed as reduction in SOD2 expression level at 0.31 to 1.25 uM incubated for 24 hrs; format: functional, cell-based; details: dose 0.31-1.25 µM
[8] = tested on: B16-F10; test: Inhibition of tumor metastasis in mouse B16-F10 cells assessed as reduction in wound healing after 24 hrs; format: functional, cell-based; details: dose 0.08-1.25 µM
[9] = tested on: A-375; test: Inhibition of cell metastasis in human A-375 cells assessed as reduction in MMP2 protein level at 0.31 to 1.25 uM after 24 hrs by Western blotting analysis; format: functional, cell-based; details: dose 0.31-1.25 µM
[10] = tested on: A-375; test: Inhibition of Wnt/beta-catenin signaling in human A-375 cells assessed as reduction in beta-catenin expression at 1.25 uM preincubated with rosiglitazone for 24 hrs followed by compound addition and measured after 24 hrs in presence of H2O2; format: cell-based
[11] = tested on: B16-F10; test: Induction of cell cycle arrest in mouse B16-F10 cells assessed as reduction in Cdk4 protein level at 0.31 to 1.25 uM after 24 hrs by Western blotting analysis; format: functional, cell-based; details: dose 0.31-1.25 µM
[12] = Toxicity in C57BL/6J mouse inoculated with mouse B16-F10 cells assessed as effect on heart morphology at 2 mg/kg, ip administered every other day for 22 days by H and E staining based assay; format: organism-based; details: in vivo, 528 h, time 22 day
[13] = Drug uptake in mouse B16-F10 cells assessed as fluorescence intensity at 2.5 uM incubated for 1 hr by confocal laser scanning microscopic analysis; format: ADME, cell-based; details: b16-f10, 1 h
[14] = tested on: A-375; test: Antiproliferative activity against human A-375 cells assessed as inhibition of cell growth at 0.04 to 10 uM by MTT assay; format: functional, cell-based; details: dose 0.04-10 µM, time 24-72 hrs, TDE = time-dependent effect
[15] = tested on: B16-F10; test: Induction of ROS generation in mouse B16-F10 cells assessed as reduction in PPARgamma expression level at 1.25 uM incubated for 24 hrs; format: functional, cell-based
[16] = tested on: A-375; test: Inhibition of Wnt/beta-catenin signaling in human A-375 cells assessed as reduction in TCF4 expression at 1.25 uM incubated for 24 hrs; format: cell-based
[17] = tested on: A-375; test: Inhibition of Wnt/beta-catenin signaling in human A-375 cells assessed as reduction in TCF4 expression at 1.25 uM preincubated with rosiglitazone for 24 hrs followed by compound addition and measured after 24 hrs in presence of H2O2; format: cell-based
[18] = tested on: B16-F10; test: Antiproliferative activity against mouse B16-F10 cells assessed as inhibition of cell growth at 0.04 to 10 uM by MTT assay; format: functional, cell-based; details: dose 0.04-10 µM, time 24-72 hrs, TDE = time-dependent effect
[19] = tested on: B16-F10; test: Antitumor activity against mouse B16-F10 cells inoculated in mouse assessed as reduction in tumor invasion at 2 mg/kg, ip administered every other day and measured on day 18 by H and E staining based assay; format: functional, organism-based; details: time 18.0 day
[20] = tested on: B16-F10; test: Induction of mitochondrial damage in mouse B16-F10 cells assessed as mitochondrial vacuolation at 2.5 uM incubated for 24 hrs by TEM analysis; format: functional, cell-based
[21] = tested on: B16-F10; test: Antitumor activity against mouse B16-F10 cells inoculated in mouse assessed as increase in E-cadherin expression at 2 mg/kg, ip administered every other day and measured on day 18 by immunohistochemistry analysis; format: functional, organism-based; details: time 18.0 day
[22] = Toxicity in C57BL/6J mouse inoculated with mouse B16-F10 cells assessed as reduction in body weight at 2 mg/kg, ip administered every other day and measured after 14 days; format: organism-based; design: scale not given: the % may be the effect or the level left; details: in vivo, 336 h, time 14 day
[23] = tested on: A-375; test: Inhibition of Wnt/beta-catenin signaling in human A-375 cells assessed as reduction in beta-catenin expression at 1.25 uM incubated for 24 hrs; format: cell-based
[24] = tested on: B16-F10; test: Induction of cell cycle arrest in mouse B16-F10 cells assessed as reduction in Cdk2 protein level at 0.31 to 1.25 uM after 24 hrs by Western blotting analysis; format: functional, cell-based; details: dose 0.31-1.25 µM
[25] = tested on: B16-F10; test: Induction of ROS generation in mouse B16-F10 cells assessed as reduction in SOD2 expression level at 0.31 to 1.25 uM incubated for 24 hrs; format: functional, cell-based; details: dose 0.31-1.25 µM
[26] = Toxicity in C57BL/6J mouse inoculated with mouse B16-F10 cells assessed as effect on lung morphology at 2 mg/kg, ip administered every other day for 22 days by H and E staining based assay; format: organism-based; details: in vivo, 528 h, time 22 day
[27] = tested on: A-375; test: Induction of cell cycle arrest in human A-375 cells assessed as reduction in Cdk4 protein level at 0.31 to 1.25 uM after 24 hrs by Western blotting analysis; format: functional, cell-based; details: dose 0.31-1.25 µM
[28] = tested on: B16-F10; test: Inhibition of cell metastasis in mouse B16-F10 cells assessed as reduction in MMP9 protein level at 0.31 to 1.25 uM after 24 hrs by Western blotting analysis; format: functional, cell-based; details: dose 0.31-1.25 µM
[29] = tested on: A-375; test: Induction of cell cycle arrest in human A-375 cells assessed as P27 protein accumulation at 0.31 to 1.25 uM after 24 hrs by Western blotting analysis; format: functional, cell-based; details: dose 0.31-1.25 µM
[30] = tested on: B16-F10; test: Inhibition of ROS generation in mouse B16-F10 cells at 1.25 uM preincubated with rosiglitazone for 2 hrs followed by wash out and compound addition for 1 hr by DCFH-DA staining based inverted fluorescence microscopic analysis; format: functional; design: scale not given: the % may be the effect or the level left
[31] = tested on: A-375; test: Antiproliferative activity against human A-375 cells assessed as inhibition of cell growth at 0.31 uM after 72 hrs by MTT assay; format: functional; design: scale not given: the % may be the effect or the level left
[32] = tested on: B16-F10; test: Induction of mitochondrial damage in mouse B16-F10 cells assessed as mitochondrial swelling at 2.5 uM incubated for 24 hrs by TEM analysis; format: functional, cell-based
[33] = tested on: A549; test: Antiproliferative activity against human A549 cells assessed as inhibition of cell growth at 0.31 uM after 72 hrs by MTT assay; format: functional; design: scale not given: the % may be the effect or the level left
[34] = tested on: A-375; test: Induction of cell cycle arrest in human A-375 cells assessed as accumulation of cells at G0/G1 phase incubated for 24 hrs by PI staining based flow cytometry analysis (reference value: 12.05%); format: functional
[35] = tested on: B16-F10; test: Induction of ROS generation in mouse B16-F10 cells assessed as reduction in GPX1 expression level at 0.31 to 1.25 uM incubated for 24 hrs; format: functional, cell-based; details: dose 0.31-1.25 µM

SMILES: CC[N+]1=C(/C=C/C2=C(Cl)C(=C/C=C3\N(CCCCCC(=O)O/C(=N/C4CCCCC4)NC4CCCCC4)c4ccccc4C3(C)C)/CCC2)C(C)(C)c2ccccc21.[Br-]
- IC50 [1]: 180 nM
- Activity ([1]; time 24-72 hrs): Dose-Dependent Effect
- Activity [2]: Non-Toxic
- inhibition [3]: Active
- Activity [4]: Dose-Dependent Effect
- Activity [5]: inactive
- Activity [6]: 70%
- Activity [7]: Active
- inhibition [8]: Dose-Dependent Effect
- inhibition [9]: Active
- inhibition [10]: inactive
- Activity [11]: Active
- Activity [12]: Non-Toxic
- Drug uptake [13]: Active
- Activity [14]: Tde
- Activity [15]: Active
- inhibition [16]: Active
- inhibition [17]: inactive
- Activity [18]: Tde
- Activity [19]: Active
- Activity [20]: Active
- Activity [21]: Active
- Activity [22]: 13.5%
- inhibition [23]: Active
- Activity [24]: Active
- Activity [25]: Active
- Activity [26]: Non-Toxic
- Activity [27]: Active
- inhibition [28]: Active
- Activity [29]: Active
- Activity [30]: >50%
- Activity [31]: 70%
- Activity [32]: Active
- Activity [33]: 70%
- Activity [34]: 45.5%
- Activity [35]: Active
